{"source": "patent US7531546B2", "about": "“Spiro-substituted pyrrolo[2,3-D]pyrimidines as cathepsin inhibitors” (Novartis AG, priority 2003, dated 2009)", "key": {"[1]": {"biological_target": "T1, recombinant human cathepsin K (Homo sapiens, UniProt P43235)", "T1 sequence (P43235 115-329)": "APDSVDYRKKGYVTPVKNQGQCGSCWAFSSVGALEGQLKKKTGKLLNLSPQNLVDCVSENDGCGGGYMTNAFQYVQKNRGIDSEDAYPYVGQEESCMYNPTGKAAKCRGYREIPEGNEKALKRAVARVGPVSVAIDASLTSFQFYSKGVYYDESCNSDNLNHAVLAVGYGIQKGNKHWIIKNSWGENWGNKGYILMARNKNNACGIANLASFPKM", "experiment": "in vitro inhibition of recombinant human cathepsin K", "format": "biochemical", "conditions": "recombinant enzyme, substrate Z-Phe-Arg-AMCA, pH 7.0, 30 min preincubation, fluorescence readout", "protocol": "The in vitro assay is carried out as follows:\nThe assay is performed in 96 well microtiter plates at ambient temperature using recombinant human cathepsin K. Inhibition of cathepsin K is assayed at a constant enzyme (0.16 nM) and substrate concentration ([…] Z-Phe-Arg-AMCA—Peptide Institute Inc. Osaka, Japan) in 100 mM sodium phosphate buffer, pH 7.0, containing 2 mM dithiothreitol, 20 mM Tween 80 and 1 mM EDTA. Cathepsin K is preincubated with the inhibitors for 30 min, and the reaction is initiated by the addition of substrate. After 30 min incubation the reaction is stopped by the addition of E-64 (2 mM), and fluorescence intensity is read on a multi-well plate reader at excitation and emission wavelengths of 360 and 460 nm, respectively."}, "[2]": {"biological_target": "recombinant human cathepsin S (Homo sapiens, UniProt P25774)", "sequence (P25774 115-331)": "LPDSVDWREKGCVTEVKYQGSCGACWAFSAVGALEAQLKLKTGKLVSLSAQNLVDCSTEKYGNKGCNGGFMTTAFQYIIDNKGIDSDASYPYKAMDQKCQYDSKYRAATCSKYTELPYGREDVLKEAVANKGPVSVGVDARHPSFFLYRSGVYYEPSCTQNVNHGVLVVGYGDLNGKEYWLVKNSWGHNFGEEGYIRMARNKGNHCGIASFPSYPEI", "experiment": "in vitro inhibition of recombinant human cathepsin S", "format": "biochemical", "conditions": "recombinant enzyme 0.04 nM, substrate Z-Leu-Leu-4-methylcoumaryl-7-amide, pH 7.0, fluorescence readout", "protocol": "The in vitro assay is carried out in clear, flat-bottomed, 96-well microtiter plates (Greiner GmbH, Germany) at ambient temperature using recombinant human cathepsin S. Inhibition of human cathepsin S is assayed at a constant enzyme and various substrate concentrations (substrate is Z-Leu-Leu-4-methylcoumaryl-7-amide (Bachem (Switzerland)) in 100 parts 0.2M sodium phosphate, pH 7.0, containing 2 mM EDTA, 2 parts 1% Triton X-100, 10 parts 20 mM dithiothreitol (DTT) and 58 parts distilled water. The assay is started by adding the enzyme solution (13 times higher concentration of final concentration of recombinant human Cathepsin S) to the reaction mixture containing various concentrations of the corresponding substrate and the compound. Substrate concentrations between 3.4 and 17 μM are used. The recombinant human Cathepsin S is used at a final concentration of 0.04 nM. Test compounds are used at concentrations between 0.4 and 2 times the determined IC50 of the compound at the enzyme. The relative fluorescence is continuously measured for 30 minutes and the initial velocity is obtained from each progress curve. […]"}}, "data": [{"smiles": "CC(C)(C)Cn1c(CN2C(=O)CC3(CCNCC3)C2=O)cc2cnc(C#N)nc21", "note": "[Example 3-0, 7-(2,2-Dimethyl-propyl)-6-(1,3-dioxo-2,8-diaza-spiro[4.5]dec-2-ylmethyl)-7H-pyrrolo[2,3-d]pyrimidine-2-carbonitrile]", "values": [{"measurement": "IC50", "setting": "[1]", "result": "~0.16", "unit": "nM"}]}, {"smiles": "CC(C)(C)CCn1c(CN2CCC3(CCN(S(C)(=O)=O)CC3)C2)cc2cnc(C#N)nc21", "note": "[Example 4-3]", "values": [{"measurement": "IC50", "setting": "[1]", "result": 8, "unit": "nM"}, {"measurement": "IC50", "setting": "[2]", "result": 6, "unit": "nM"}]}, {"smiles": "CC(=O)N1CCC2(CC1)C(=O)N(Cc1cc3cnc(C#N)nc3n1CCC1CCCCC1)c1ccccc12", "note": "[Example 4-8]", "values": [{"measurement": "IC50", "setting": "[2]", "result": "~9", "unit": "nM"}]}, {"smiles": "CC(=O)N1CCC2(CC1)C(=O)N(Cc1cc3cnc(C#N)nc3n1CCC(C)(C)C)c1ccccc12", "note": "[Example 4-9]", "values": [{"measurement": "IC50", "setting": "[1]", "result": 16, "unit": "nM"}, {"measurement": "IC50", "setting": "[2]", "result": 10, "unit": "nM"}]}]}
